Assay results published in US12077503B2, “Substituted cyclic amides and their use as herbicides” (FMC CORPORATION, priority 2015, dated 2024).

What was measured:
Format in all cases: in vivo
[1] = tested on: ivy-leaved morning glory (Ipomoea hederacea); test: Test G Pre-Emergence Protocol; details: Ipomoea, pre-emergence, 312 h, evaluated after 13 days; for pest or weed control at 15.625 g/ha: 15.625 g ai/ha; for pest or weed control at 15.625 g/ha / pest or weed control at 250 g/ha: read-out: Morningglory, Ivy-leaved damage rating (100=total damage to plant; 0=no damage to plant); for pest or weed control at 250 g/ha: 250 g ai/ha
In short: (§1)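 Scores are visual damage ratings from 0 (no damage) to 100 (total plant kill), taken 13 days after treatment. Compound was sprayed one day post-sowing at 15.625, 62.5 or 250 g/ha in 50:50 acetone/water with 0.5% Tween 20.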

[2] = tested on: barnyardgrass (Echinochloa crus-galli); test: Test G Pre-Emergence Protocol; details: Echinochloa crus-galli, pre-emergence, 312 h, evaluated after 13 days; for pest or weed control at 15.625 g/ha: 15.625 g ai/ha; for pest or weed control at 15.625 g/ha / pest or weed control at 250 g/ha: read-out: Barnyardgrass damage rating (100=total damage to plant; 0=no damage to plant); for pest or weed control at 62.5 g/ha: 62.5 g ai/ha, 100=total damage to plant, 0=no damage to plant, read-out: Barnyardgrass damage rating; for pest or weed control at 250 g/ha: 250 g ai/ha
In short: as §1

[3] = tested on: velvetleaf (Abutilon theophrasti); test: Test G Pre-Emergence Protocol; details: Abutilon theophrasti, pre-emergence, 312 h, evaluated after 13 days; for pest or weed control at 15.625 g/ha: 15.625 g ai/ha; for pest or weed control at 15.625 g/ha / pest or weed control at 250 g/ha: read-out: Velvetleaf damage rating (100=total damage to plant; 0=no damage to plant); for pest or weed control at 62.5 g/ha: 62.5 g ai/ha, 100=total damage to plant, 0=no damage to plant, read-out: Velvetleaf damage rating; for pest or weed control at 250 g/ha: 250 g ai/ha
In short: as §1

[4] = tested on: giant foxtail (Setaria faberi); test: Test G Pre-Emergence Protocol; details: Setaria faberi, pre-emergence, 312 h, evaluated after 13 days; for pest or weed control at 15.625 g/ha: 15.625 g ai/ha; for pest or weed control at 15.625 g/ha / pest or weed control at 250 g/ha: read-out: Foxtail, Giant damage rating (100=total damage to plant; 0=no damage to plant); for pest or weed control at 62.5 g/ha: 62.5 g ai/ha, 100=total damage to plant, 0=no damage to plant, read-out: Foxtail, Giant damage rating; for pest or weed control at 250 g/ha: 250 g ai/ha
In short: as §1

corn (Zea mays) [5] = test: Test G Pre-Emergence Protocol; details: Zea mays, pre-emergence, 312 h, evaluated after 13 days; for plant injury at 15.625 g/ha: 15.625 g ai/ha; for plant injury at 15.625 g/ha / plant injury at 250 g/ha: read-out: Corn damage rating (100=total damage to plant; 0=no damage to plant); for plant injury at 62.5 g/ha: 62.5 g ai/ha, 100=total damage to plant, 0=no damage to plant, read-out: Corn damage rating; for plant injury at 250 g/ha: 250 g ai/ha
In short: as §1

[6] = tested on: redroot pigweed (Amaranthus retroflexus); test: Test G Pre-Emergence Protocol; details: Amaranthus retroflexus, pre-emergence, 312 h, evaluated after 13 days; for pest or weed control at 15.625 g/ha: 15.625 g ai/ha; for pest or weed control at 15.625 g/ha / pest or weed control at 250 g/ha: read-out: Pigweed, Redroot damage rating (100=total damage to plant; 0=no damage to plant); for pest or weed control at 62.5 g/ha: 62.5 g ai/ha, 100=total damage to plant, 0=no damage to plant, read-out: Pigweed, Redroot damage rating; for pest or weed control at 250 g/ha: 250 g ai/ha
In short: as §1

[7] = tested on: ivy-leaved morning glory (Ipomoea hederacea); test: Test G Post-Emergence Protocol; details: Ipomoea, post-emergence, 312 h, read-out: Morningglory, Ivy-leaved damage rating; for pest or weed control at 15.625 g/ha: 15.625 g ai/ha, evaluated after 13 days (100=total damage to plant; 0=no damage to plant); for pest or weed control at 62.5 g/ha: 62.5 g ai/ha; for pest or weed control at 62.5 g/ha / pest or weed control at 250 g/ha: evaluated after 13 days, 100=total damage to plant, 0=no damage to plant; for pest or weed control at 250 g/ha: 250 g ai/ha
In short: (§2)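 Foliar application was made 8 days after sowing, using an aqueous spray of the active in acetone/water (50:50) with 0.5% Tween 20, at doses of 15.625, 62.5 or 250 g/ha. Injury was assessed 13 days later, where 100 meant the plant was fully damaged.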

[8] = tested on: barnyardgrass (Echinochloa crus-galli); test: Test G Post-Emergence Protocol; details: Echinochloa crus-galli, post-emergence, 312 h, read-out: Barnyardgrass damage rating; for pest or weed control at 15.625 g/ha: 15.625 g ai/ha, evaluated after 13 days (100=total damage to plant; 0=no damage to plant); for pest or weed control at 62.5 g/ha: 62.5 g ai/ha; for pest or weed control at 62.5 g/ha / pest or weed control at 250 g/ha: evaluated after 13 days, 100=total damage to plant, 0=no damage to plant; for pest or weed control at 250 g/ha: 250 g ai/ha
In short: as §2

[9] = tested on: velvetleaf (Abutilon theophrasti); test: Test G Post-Emergence Protocol; details: Abutilon theophrasti, post-emergence, 312 h, read-out: Velvetleaf damage rating; for pest or weed control at 15.625 g/ha: 15.625 g ai/ha, evaluated after 13 days (100=total damage to plant; 0=no damage to plant); for pest or weed control at 62.5 g/ha: 62.5 g ai/ha; for pest or weed control at 62.5 g/ha / pest or weed control at 250 g/ha: evaluated after 13 days, 100=total damage to plant, 0=no damage to plant; for pest or weed control at 250 g/ha: 250 g ai/ha
In short: as §2

[10] = tested on: giant foxtail (Setaria faberi); test: Test G Post-Emergence Protocol; details: Setaria faberi, post-emergence, 312 h, read-out: Foxtail, Giant damage rating; for pest or weed control at 15.625 g/ha: 15.625 g ai/ha, evaluated after 13 days (100=total damage to plant; 0=no damage to plant); for pest or weed control at 62.5 g/ha: 62.5 g ai/ha; for pest or weed control at 62.5 g/ha / pest or weed control at 250 g/ha: evaluated after 13 days, 100=total damage to plant, 0=no damage to plant; for pest or weed control at 250 g/ha: 250 g ai/ha
In short: as §2

corn (Zea mays) [11] = test: Test G Post-Emergence Protocol; details: Zea mays, post-emergence, 312 h, read-out: Corn damage rating; for plant injury at 15.625 g/ha: 15.625 g ai/ha, evaluated after 13 days (100=total damage to plant; 0=no damage to plant); for plant injury at 62.5 g/ha: 62.5 g ai/ha; for plant injury at 62.5 g/ha / plant injury at 250 g/ha: evaluated after 13 days, 100=total damage to plant, 0=no damage to plant; for plant injury at 250 g/ha: 250 g ai/ha
In short: as §2

[12] = tested on: redroot pigweed (Amaranthus retroflexus); test: Test G Post-Emergence Protocol; details: Amaranthus retroflexus, post-emergence, 312 h, read-out: Pigweed, Redroot damage rating; for pest or weed control at 15.625 g/ha: 15.625 g ai/ha, evaluated after 13 days (100=total damage to plant; 0=no damage to plant); for pest or weed control at 62.5 g/ha: 62.5 g ai/ha; for pest or weed control at 62.5 g/ha / pest or weed control at 250 g/ha: evaluated after 13 days, 100=total damage to plant, 0=no damage to plant; for pest or weed control at 250 g/ha: 250 g ai/ha
In short: as §2

| SMILES | pest or weed control at 15.625 g/ha [1] | pest or weed control at 250 g/ha [1] | pest or weed control at 15.625 g/ha [2] | pest or weed control at 62.5 g/ha [2] | pest or weed control at 250 g/ha [2] | pest or weed control at 15.625 g/ha [3] | pest or weed control at 62.5 g/ha [3] | pest or weed control at 250 g/ha [3] | pest or weed control at 15.625 g/ha [4] | pest or weed control at 62.5 g/ha [4] | pest or weed control at 250 g/ha [4] | plant injury at 15.625 g/ha (corn (Zea mays) [5]) | plant injury at 62.5 g/ha (corn (Zea mays) [5]) | plant injury at 250 g/ha (corn (Zea mays) [5]) | pest or weed control at 15.625 g/ha [6] | pest or weed control at 62.5 g/ha [6] | pest or weed control at 250 g/ha [6] | pest or weed control at 15.625 g/ha [7] | pest or weed control at 62.5 g/ha [7] | pest or weed control at 250 g/ha [7] | other results |
| --- | --- | --- | --- | --- | --- | --- | --- | --- | --- | --- | --- | --- | --- | --- | --- | --- | --- | --- | --- | --- | --- |
| CON1C[C@H](c2ccc(F)c(F)c2)[C@@H](C(=O)Nc2ccc(F)c(F)c2F)C1=O [Compound 1679] | 0% | 10% | 50% | 80% | 90% | 10% | 10% | 60% | 90% | 90% | 90% | 0% | 0% | 60% | 10% | 10% | 30% | 0% | 50% | 40% | pest or weed control at 15.625 g/ha [8]: 40%; pest or weed control at 62.5 g/ha [8]: 80%; pest or weed control at 250 g/ha [8]: 90%; pest or weed control at 15.625 g/ha [9]: 0%; pest or weed control at 62.5 g/ha [9]: 20%; pest or weed control at 250 g/ha [9]: 40%; pest or weed control at 15.625 g/ha [10]: 80%; pest or weed control at 62.5 g/ha [10]: 80%; pest or weed control at 250 g/ha [10]: 80%; plant injury at 15.625 g/ha (corn (Zea mays) [11]): 0%; plant injury at 62.5 g/ha (corn (Zea mays) [11]): 0%; plant injury at 250 g/ha (corn (Zea mays) [11]): 60%; pest or weed control at 15.625 g/ha [12]: 0%; pest or weed control at 62.5 g/ha [12]: 30%; pest or weed control at 250 g/ha [12]: 50% |
| CN1CCCC(NC(=O)[C@H]2C(=O)N(C)C[C@@H]2c2ccc(C(F)(F)F)cc2)C1=O (mixture of isomers) [Compound 1674] | 0% | 0% | 0% | 0% | 0% | 0% | 0% | 0% | 0% | 0% | 0% | 0% | 0% | 0% | 0% | 0% | 0% | 0% | 0% | 0% | pest or weed control at 62.5 g/ha ([1]; 62.5 g ai/ha, 100=total damage to plant, 0=no damage to plant, read-out: Morningglory, Ivy-leaved damage rating): 0%; pest or weed control at 15.625 g/ha [8]: 0%; pest or weed control at 62.5 g/ha [8]: 0%; pest or weed control at 250 g/ha [8]: 0%; pest or weed control at 15.625 g/ha [9]: 0%; pest or weed control at 62.5 g/ha [9]: 0%; pest or weed control at 250 g/ha [9]: 0%; pest or weed control at 15.625 g/ha [10]: 0%; pest or weed control at 62.5 g/ha [10]: 0%; pest or weed control at 250 g/ha [10]: 20%; plant injury at 15.625 g/ha (corn (Zea mays) [11]): 0%; plant injury at 62.5 g/ha (corn (Zea mays) [11]): 0%; plant injury at 250 g/ha (corn (Zea mays) [11]): 0%; pest or weed control at 15.625 g/ha [12]: 0%; pest or weed control at 62.5 g/ha [12]: 0%; pest or weed control at 250 g/ha [12]: 0% |
